In patent publication US7772246B2 (Pfizer Inc., priority 2007, dated 2010):

What was measured:
b-Raf [1] = molecular target: T1, b-Raf (Homo sapiens, UniProt P15056); experiment: Raf biochemical assay (in vitro kinase assay, 32-P transfer from ATP to Mek1); details: full-length wild type b-Raf, Mek1 substrate; for Ki: 25 μM ATP; for inhibition at 1 µM: @ 1 μM compound, read-out: b-Raf % inhib @ 1 μM
T1 construct: Full-length wild type b-Raf is expressed in recombinant form and purified from bacterial or insect cells; made in house; host or cells: bacterial or insect cells
T1 sequence (P15056 whole entry): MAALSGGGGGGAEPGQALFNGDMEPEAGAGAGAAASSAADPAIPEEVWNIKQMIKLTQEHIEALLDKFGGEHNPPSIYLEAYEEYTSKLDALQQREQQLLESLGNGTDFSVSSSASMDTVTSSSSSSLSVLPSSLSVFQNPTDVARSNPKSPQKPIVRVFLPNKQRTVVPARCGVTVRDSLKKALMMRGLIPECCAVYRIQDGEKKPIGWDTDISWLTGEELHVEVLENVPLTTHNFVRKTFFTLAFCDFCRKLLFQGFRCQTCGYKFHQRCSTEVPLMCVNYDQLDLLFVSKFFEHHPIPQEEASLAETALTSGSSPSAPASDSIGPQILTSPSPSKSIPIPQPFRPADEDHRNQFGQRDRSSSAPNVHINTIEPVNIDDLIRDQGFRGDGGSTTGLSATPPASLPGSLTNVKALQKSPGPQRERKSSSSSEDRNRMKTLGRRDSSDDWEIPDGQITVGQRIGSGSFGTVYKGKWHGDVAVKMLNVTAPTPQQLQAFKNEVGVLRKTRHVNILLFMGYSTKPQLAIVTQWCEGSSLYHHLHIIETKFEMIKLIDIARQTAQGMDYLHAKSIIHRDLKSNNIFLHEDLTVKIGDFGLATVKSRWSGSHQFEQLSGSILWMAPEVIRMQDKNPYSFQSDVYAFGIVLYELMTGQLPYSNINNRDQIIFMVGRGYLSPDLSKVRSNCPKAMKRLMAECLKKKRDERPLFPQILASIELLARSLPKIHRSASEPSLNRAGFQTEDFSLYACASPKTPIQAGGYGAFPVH
Procedure: Compounds of the present invention were evaluated for potency against b-Raf using an in vitro kinase assay. Raf kinase activity is measured in vitro by determining transfer of radiolabeled 32-P phosphate from ATP to the specific Raf substrate Mek1. Full-length wild type b-Raf is expressed in recombinant form and purified from bacterial or insect cells. Recombinant Mek1 is purified from E. coli bacterial cells. In one assay format (designated G1), the full-length wild type Mek1 is used as the b-Raf substrate. In a second assay format (designated G2), the full-length K97R Mek1 mutant is used as the b-Raf substrate.
In vitro kinase assays are performed in solution containing the following; 50 mM Hepes (pH 7.4), 5 nM b-Raf, 0.8 μM Mek1, 10 mM MgCl2, 25 μM ATP, 0.002% (v/v) Tween-20, 5 μg/mL leupeptin, 1.2 mM DTT, 2% (v/v) DMSO, 0.2-1.0 μCi [γ-^32P]ATP per well.
The assays are performed in wells of a 96 well polypropylene round bottom plate, each well containing 43.5 μL assay mix and 1.5 μL inhibitor compound or DMSO vehicle. 15 μL of b-Raf mix is added and the plate is shaken on a plate shaker and preincubated for 10 minutes at ambient temperature. The reaction is started by addition of 15 μL ATP mix and shaking. The reaction is terminated after 40 minutes by addition of 25 μL 0.5 M EDTA (pH 7.4).
60 μL of the stopped reaction is transferred to a well of a 96-well nylon 66 Biodyne A membrane Silent Screen filter plate (Nalge/Nunc: 256081). The wells are filtered and washed five times with 0.85% phosphoric acid. The filter is placed in a tray with about 50 mL 0.85% phosphoric acid and gently rotated for 10 minutes on an orbital shaker. The procedure is repeated once with fresh 0.85% phosphoric acid. Five samples of 0.5 μL of ATP mix are also spotted onto filter paper for calculation of specific activity. The filters are air dried for one hour and sandwiched between cellophane wrap on an Amersham Biosciences Storage Phosphor Screen and developed at least over night. The image is read using a Molecular Dynamics Storm 840 phosphoimager. Volumes of spots are calculated using ImageQuant5.1.
Raf kinase activity is calculated from the specific activity of [32-P] ATP, 32-P incorporation into Mek1, and the concentration of b-Raf.

b-Raf [2] = molecular target: T2, b-Raf (Homo sapiens, UniProt P15056, V600E); experiment: Raf cellular assay (phospho-Mek1/2 ELISA in A2058 cells); assay type: cell-based; details: Table 2; human melanoma A2058 cells (b-Raf mutation), Mek1/2 Ser217/221 phosphorylation, 1 hour incubation; read-out: pMEK IC50
T2 construct: endogenous in cells; host or cells: A2058 human melanoma cells
T2 sequence (P15056 whole entry V600E): as the sequence (P15056 whole entry) above, with V600E counted along it
Procedure, shortened: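 A2058 melanoma cells (B-Raf mutant), seeded overnight in 10% FBS DMEM, were exposed to compounds (11-point 1:3 series, duplicate) for 1 h at 37 °C. Lysates were captured on anti-Mek1-coated plates and Mek1/2 Ser217/221 phosphorylation was read by anti-phospho-Mek1/2 ELISA, HRP/TMB, 450 nm.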

Structure (SMILES)	Ki (b-Raf [1]) [nM]	IC50 (b-Raf [2]) [nM]	inhibition at 1 µM (b-Raf [1]) [%]
C[C@H](O)CNc1nccc(-c2cn(C)nc2-c2cnc3[nH]cc(Cl)c3c2)n1 [Example E-1, (2S)-1-(4-(3-(3-chloro-1H-pyrrolo[2,3-b]pyridin-5-yl)-1-methyl-1H-pyrazol-4-yl)pyrimidin-2-ylamino)propan-2-ol]	1.5	223	
C[C@H](O)CNc1nccc(-c2cn(CC3(C)COC3)nc2-c2cnc3[nH]cc(Cl)c3c2)n1 [Example E-4, (2S)-1-(4-(3-(3-chloro-1H-pyrrolo[2,3-b]pyridin-5-yl)-1-((3-methyloxetan-3-yl)methyl)-1H-pyrazol-4-yl)pyrimidin-2-ylamino)propan-2-ol]	1.9	188	
CC(C)n1cc(-c2ccnc(NCCF)n2)c(-c2cnc3[nH]ccc3c2)n1 [Example D-5, N-(2-fluoroethyl)-4-[1-isopropyl-3-(1H-pyrrolo[2,3-b]pyridin-5-yl)-1H-pyrazol-4-yl]pyrimidin-2-amine]	0.5	182	100
CNc1ccc(-c2nn(C(C)C)cc2-c2ccnc(NC[C@H](C)O)n2)cn1 [Example B-2, (2S)-1-(4-(1-isopropyl-3-(6-(methylamino)pyridin-3-yl)-1H-pyrazol-4-yl)pyrimidin-2-ylamino)propan-2-ol]	12	8670	97
C[C@H](O)CNc1nccc(-c2cn(C)nc2-c2cnc3[nH]ccc3c2)n1 [Example B-13, (2S)-1-(4-(1-methyl-3-(1H-pyrrolo[2,3-b]pyridin-5-yl)-1H-pyrazol-4-yl)pyrimidin-2-ylamino)propan-2-ol]	22.7	6270	
COCCNc1nccc(-c2cn(C(C)C)nc2-c2cnc3[nH]ccc3c2)n1 [Example D-13, 4-[1-isopropyl-3-(1H-pyrrolo[2,3-b]pyridin-5-yl)-1H-pyrazol-4-yl]-N-(2-methoxyethyl)-pyrimidin-2-amine]	0.7	2990	100
CC(CO)Nc1nccc(-c2cn(C(C)C)nc2-c2cnc3[nH]ccc3c2)n1 (stereo in doubt) [Example D-9, (2R)-2-({4-[1-isopropyl-3-(1H-pyrrolo[2,3-b]pyridin-5-yl)-1H-pyrazol-4-yl]pyrimidin-2-yl}amino)propan-1-ol]	1.6	918	100
CC(C)n1cc(-c2ccnc(NCC3CCOC3)n2)c(-c2cnc3[nH]ccc3c2)n1 [Example D-12, 4-[1-isopropyl-3-(1H-pyrrolo[2,3-b]pyridin-5-yl)-1H-pyrazol-4-yl]-N-(tetrahydrofuran-3-ylmethyl)pyrimidin-2-amine]	1.4	1520	99
Cc1[nH]c2ncc(-c3nn(C(C)C)cc3-c3ccnc(NC[C@H](C)O)n3)cc2c1Cl [Example E-3, (2S)-1-(4-(3-(3-chloro-2-methyl-1H-pyrrolo[2,3-b]pyridin-5-yl)-1-isopropyl-1H-pyrazol-4-yl)pyrimidin-2-ylamino)propan-2-ol]	0.6	165	
CCN1CC(CNc2nccc(-c3cn(C(C)C)nc3-c3cnc4[nH]ccc4c3)n2)CC1=O [Example D-14, 1-ethyl-4-[({4-[1-isopropyl-3-(1H-pyrrolo[2,3-b]pyridin-5-yl)-1H-pyrazol-4-yl]pyrimidin-2-yl}amino)methyl]-pyrrolidin-2-one]	4.8	3140	99
CC(C)n1cc(-c2ccnc(NC[C@H](C)O)n2)c(-c2cnc3[nH]ncc3c2)n1 [Example D-1, (2S)-1-(4-(1-isopropyl-3-(1H-pyrazolo[3,4-b]pyridin-5-yl)-1H-pyrazol-4-yl)pyrimidin-2-ylamino)propan-2-ol]	3.3	1980	
Cc1cc(-c2nn(C(C)C)cc2-c2ccnc(NC[C@H](C)O)n2)cnc1N [Example B-3, (2S)-1-(4-(3-(6-amino-5-methylpyridin-3-yl)-1-isopropyl-1H-pyrazol-4-yl)pyrimidin-2-ylamino)propan-2-ol]	11	815	98
CC(C)n1cc(-c2ccnc(NCCn3cccn3)n2)c(-c2cnc3[nH]ccc3c2)n1 [Example D-4, 4-[1-isopropyl-3-(1H-pyrrolo[2,3-b]pyridin-5-yl)-1H-pyrazol-4-yl]-N-[2-(1H-pyrazol-1-yl)ethyl]pyrimidin-2-amine]	< 0.1	149	100
